This note sets out measurements from patent publication US8575337B2, “Oxazolidinone derivative having fused ring” (Research Foundation Itsuu Laboratory, priority 2008, dated 2013).

Holding throughout (experiment): MIC determination, CLSI standard method
What all share (type): cell-based

The test system of one assay is S. aureus NRS271 (LZD-R). The conditions noted are these: Staphylococcus aureus, cation-adjusted Mueller Hinton Broth, inoculum about 5×10^5 CFU/mL. The protocol:
(§1) The compounds of the above Examples were tested for antimicrobial activity.
(§2) Minimal inhibitory concentration (MIC: μg/ml) against different strains of bacteria was determined according to the standard method recommended by CLSI (clinical and laboratory standards institute). The samples used were prepared by dissolving the compound in DMSO at the concentration 1280 μg/mL, followed by a two fold serial dilution with DMSO. The sample was added to a bacteria suspension at the concentration of 5%, and MIC was determined. Cation-adjusted Mueller Hinton Broth was used as a culture media. The inoculation concentration was about 5×10^5 CFU/mL.

In the next assay the test system is S. aureus SR3637 (MRSA). Conditions: Staphylococcus aureus, cation-adjusted Mueller Hinton Broth, inoculum about 5×10^5 CFU/mL. Here is the method:
as §1, §2

Another assay concerns E. faecium SR7940 (VRE). Conditions: Enterococcus faecium, cation-adjusted Mueller Hinton Broth, inoculum about 5×10^5 CFU/mL. The protocol: as §1, §2

Converted amounts (≈) assume the structure as drawn.

For orientation: MIC means the smallest concentration in the dilution series that meets the test's criterion for growth inhibition. A low value points to greater potency.

Regarding `CC(=O)NC[C@H]1CN(c2ccc(N3CCOCC3)c(F)c2)C(=O)O1` [Linezolid, (S)-n-[[3-[3-fluoro-4-(4-morpholinyl)phenyl]-2-oxo-5-oxazolidinyl]methyl]acetamide], the MIC is 32 mg/L (≈ 94.9 µM) in the assay with S. aureus NRS271 (LZD-R), 2 mg/L (≈ 5.93 µM) against S. aureus SR3637 (MRSA) and 2 mg/L (≈ 5.93 µM) in the assay with E. faecium SR7940 (VRE).
As to `CC(=O)NC[C@H]1CN(c2ccc(-c3ccn4ccnc4c3)c(F)c2)C(=O)O1` [Example 18], the MIC against S. aureus NRS271 (LZD-R) was determined as 2 mg/L (≈ 5.43 µM); against S. aureus SR3637 (MRSA) it was 0.25 mg/L (≈ 0.679 µM); in the assay with E. faecium SR7940 (VRE), 0.25 mg/L (≈ 0.679 µM).
